Experiments:
Assay in all cases: Kinase profiling
Type in all cases: biochemical
CSK = molecular target: T1, CSK (Homo sapiens, UniProt P41240)
T1 construct: purchased ProQinase (Freiburg, Germany)
Protocol: (§1) The analysis was performed by ProQinase (Freiburg, Germany).

ACVRL1 = molecular target: T2, ACVRL1 (Homo sapiens, UniProt P37023)
T2 construct: purchased ProQinase (Freiburg, Germany)
Protocol: as §1

CK1alpha1 = molecular target: T3, CK1alpha1 (Homo sapiens, UniProt P48729)
T3 construct: purchased ProQinase (Freiburg, Germany)
Protocol: as §1

CDK5/p25NCK = molecular target: T4, CDK5/p25NCK (Homo sapiens, UniProt Q00535)
T4 construct: purchased ProQinase (Freiburg, Germany)
Protocol: as §1

ERBB4 = molecular target: T5, ERBB4 (Homo sapiens, UniProt Q15303)
T5 construct: purchased ProQinase (Freiburg, Germany)
Protocol: as §1

SGK3 = molecular target: T6, SGK3 (Homo sapiens, UniProt Q96BR1)
T6 construct: purchased ProQinase (Freiburg, Germany)
T6 sequence (Q96BR1 1-496): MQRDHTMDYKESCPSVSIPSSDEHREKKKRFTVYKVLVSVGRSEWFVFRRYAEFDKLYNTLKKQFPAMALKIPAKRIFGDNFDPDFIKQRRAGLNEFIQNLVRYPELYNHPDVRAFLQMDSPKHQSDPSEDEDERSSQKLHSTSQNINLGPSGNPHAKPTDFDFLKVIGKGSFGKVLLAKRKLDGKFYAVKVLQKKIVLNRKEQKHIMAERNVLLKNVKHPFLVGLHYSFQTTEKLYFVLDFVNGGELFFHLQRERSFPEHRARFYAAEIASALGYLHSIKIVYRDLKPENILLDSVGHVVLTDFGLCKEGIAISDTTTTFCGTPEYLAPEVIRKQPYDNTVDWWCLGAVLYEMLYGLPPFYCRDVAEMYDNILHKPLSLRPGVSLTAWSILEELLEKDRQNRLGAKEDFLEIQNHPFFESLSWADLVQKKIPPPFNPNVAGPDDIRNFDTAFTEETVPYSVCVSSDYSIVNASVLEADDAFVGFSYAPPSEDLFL
Protocol: as §1

RPS6KA5 = molecular target: T7, RPS6KA5 (Homo sapiens, UniProt O75582)
T7 construct: purchased ProQinase (Freiburg, Germany)
Protocol: as §1

PAK4 = molecular target: T8, PAK4 (Homo sapiens, UniProt O96013)
T8 construct: purchased ProQinase (Freiburg, Germany)
Protocol: as §1

MAP4K5 = molecular target: T9, MAP4K5 (Homo sapiens, UniProt Q9Y4K4)
T9 construct: purchased ProQinase (Freiburg, Germany)
Protocol: as §1

TYK2 = molecular target: T10, TYK2 (Homo sapiens, UniProt P29597)
T10 construct: purchased ProQinase (Freiburg, Germany)
Protocol: as §1

LIMK1 = molecular target: T11, LIMK1 (Homo sapiens, UniProt P53667)
T11 construct: purchased ProQinase (Freiburg, Germany)
Protocol: as §1

EPHA2 = molecular target: T12, EPHA2 (Homo sapiens, UniProt P29317)
T12 construct: purchased ProQinase (Freiburg, Germany)
Protocol: as §1

RPS6KA6 = molecular target: T13, RPS6KA6 (Homo sapiens, UniProt Q9UK32)
T13 construct: purchased ProQinase (Freiburg, Germany)
Protocol: as §1

CSF1R = molecular target: T14, CSF1R (Homo sapiens, UniProt P07333)
T14 construct: purchased ProQinase (Freiburg, Germany)
Protocol: as §1

ACVR2A = molecular target: T15, ACVR2A (Homo sapiens, UniProt P27037)
T15 construct: purchased ProQinase (Freiburg, Germany)
Protocol: as §1

WNK2 = molecular target: T16, WNK2 (Homo sapiens, UniProt Q9Y3S1)
T16 construct: purchased ProQinase (Freiburg, Germany)
Protocol: as §1

MAP4K4 = molecular target: T17, MAP4K4 (Homo sapiens, UniProt O95819)
T17 construct: purchased ProQinase (Freiburg, Germany)
Protocol: as §1

NIK = molecular target: T18, NIK (Homo sapiens, UniProt Q99558)
T18 construct: purchased ProQinase (Freiburg, Germany)
Protocol: as §1

CDK3/CycE1 = molecular target: T19, CDK3/CycE1 (Homo sapiens, UniProt Q00526)
T19 construct: purchased ProQinase (Freiburg, Germany)
Protocol: as §1

ERK7 = molecular target: T20, ERK7 (Homo sapiens, UniProt Q8TD08)
T20 construct: purchased ProQinase (Freiburg, Germany)
T20 sequence (Q8TD08 1-544): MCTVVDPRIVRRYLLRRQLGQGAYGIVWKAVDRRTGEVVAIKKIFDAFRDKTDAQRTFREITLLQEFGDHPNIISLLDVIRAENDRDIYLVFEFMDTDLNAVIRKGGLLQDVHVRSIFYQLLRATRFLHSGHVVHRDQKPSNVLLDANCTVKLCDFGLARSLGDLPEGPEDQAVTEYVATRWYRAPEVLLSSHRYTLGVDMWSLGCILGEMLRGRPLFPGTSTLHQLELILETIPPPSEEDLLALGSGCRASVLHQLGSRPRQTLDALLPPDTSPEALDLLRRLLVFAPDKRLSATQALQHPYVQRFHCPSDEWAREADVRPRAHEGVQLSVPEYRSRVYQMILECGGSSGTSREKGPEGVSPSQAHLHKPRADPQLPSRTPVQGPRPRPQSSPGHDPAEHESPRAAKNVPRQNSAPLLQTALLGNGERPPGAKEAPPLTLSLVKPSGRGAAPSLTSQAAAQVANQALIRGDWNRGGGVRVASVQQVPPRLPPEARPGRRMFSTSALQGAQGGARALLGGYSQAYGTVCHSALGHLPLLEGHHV
Protocol: as §1

CAMKK1 = molecular target: T21, CAMKK1 (Homo sapiens, UniProt Q8N5S9)
T21 construct: purchased ProQinase (Freiburg, Germany)
Protocol: as §1

MAP3K11 = molecular target: T22, MAP3K11 (Homo sapiens, UniProt Q16584)
T22 construct: purchased ProQinase (Freiburg, Germany)
Protocol: as §1

CAMK2D = molecular target: T23, CAMK2D (Homo sapiens, UniProt Q13557)
T23 construct: purchased ProQinase (Freiburg, Germany)
Protocol: as §1

PIM2 = molecular target: T24, PIM2 (Homo sapiens, UniProt Q9P1W9)
T24 construct: purchased ProQinase (Freiburg, Germany)
Protocol: as §1

T10 sequence (P29597 whole entry): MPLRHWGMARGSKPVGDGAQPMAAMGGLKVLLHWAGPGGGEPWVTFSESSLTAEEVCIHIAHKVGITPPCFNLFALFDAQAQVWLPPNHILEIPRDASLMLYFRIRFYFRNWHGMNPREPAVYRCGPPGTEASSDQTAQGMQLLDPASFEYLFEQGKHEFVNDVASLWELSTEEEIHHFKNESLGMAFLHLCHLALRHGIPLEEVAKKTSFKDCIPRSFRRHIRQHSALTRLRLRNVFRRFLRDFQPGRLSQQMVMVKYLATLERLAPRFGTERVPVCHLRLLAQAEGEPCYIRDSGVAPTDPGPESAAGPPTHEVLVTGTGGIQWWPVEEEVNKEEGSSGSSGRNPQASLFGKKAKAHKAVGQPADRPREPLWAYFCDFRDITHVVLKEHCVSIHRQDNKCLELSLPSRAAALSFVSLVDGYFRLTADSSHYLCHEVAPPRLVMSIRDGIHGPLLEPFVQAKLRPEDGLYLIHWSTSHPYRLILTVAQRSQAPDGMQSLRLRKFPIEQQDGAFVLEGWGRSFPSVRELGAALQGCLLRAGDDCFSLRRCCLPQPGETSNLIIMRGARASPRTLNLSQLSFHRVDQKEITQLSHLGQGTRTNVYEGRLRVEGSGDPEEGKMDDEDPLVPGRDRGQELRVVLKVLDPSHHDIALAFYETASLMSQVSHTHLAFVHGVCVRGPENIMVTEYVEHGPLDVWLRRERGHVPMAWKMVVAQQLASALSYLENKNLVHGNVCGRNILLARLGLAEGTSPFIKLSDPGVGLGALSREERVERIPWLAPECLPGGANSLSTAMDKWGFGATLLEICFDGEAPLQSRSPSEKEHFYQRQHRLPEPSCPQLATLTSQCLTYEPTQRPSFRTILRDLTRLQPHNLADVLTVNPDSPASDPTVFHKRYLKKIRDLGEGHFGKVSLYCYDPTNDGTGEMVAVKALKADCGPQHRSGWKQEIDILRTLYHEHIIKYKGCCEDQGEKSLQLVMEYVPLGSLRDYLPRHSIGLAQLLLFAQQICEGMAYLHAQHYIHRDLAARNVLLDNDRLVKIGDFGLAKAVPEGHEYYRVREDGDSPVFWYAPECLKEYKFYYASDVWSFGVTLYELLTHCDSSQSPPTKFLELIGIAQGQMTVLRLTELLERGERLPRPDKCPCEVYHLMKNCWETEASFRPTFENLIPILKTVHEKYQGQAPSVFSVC
T17 sequence (O95819 whole entry): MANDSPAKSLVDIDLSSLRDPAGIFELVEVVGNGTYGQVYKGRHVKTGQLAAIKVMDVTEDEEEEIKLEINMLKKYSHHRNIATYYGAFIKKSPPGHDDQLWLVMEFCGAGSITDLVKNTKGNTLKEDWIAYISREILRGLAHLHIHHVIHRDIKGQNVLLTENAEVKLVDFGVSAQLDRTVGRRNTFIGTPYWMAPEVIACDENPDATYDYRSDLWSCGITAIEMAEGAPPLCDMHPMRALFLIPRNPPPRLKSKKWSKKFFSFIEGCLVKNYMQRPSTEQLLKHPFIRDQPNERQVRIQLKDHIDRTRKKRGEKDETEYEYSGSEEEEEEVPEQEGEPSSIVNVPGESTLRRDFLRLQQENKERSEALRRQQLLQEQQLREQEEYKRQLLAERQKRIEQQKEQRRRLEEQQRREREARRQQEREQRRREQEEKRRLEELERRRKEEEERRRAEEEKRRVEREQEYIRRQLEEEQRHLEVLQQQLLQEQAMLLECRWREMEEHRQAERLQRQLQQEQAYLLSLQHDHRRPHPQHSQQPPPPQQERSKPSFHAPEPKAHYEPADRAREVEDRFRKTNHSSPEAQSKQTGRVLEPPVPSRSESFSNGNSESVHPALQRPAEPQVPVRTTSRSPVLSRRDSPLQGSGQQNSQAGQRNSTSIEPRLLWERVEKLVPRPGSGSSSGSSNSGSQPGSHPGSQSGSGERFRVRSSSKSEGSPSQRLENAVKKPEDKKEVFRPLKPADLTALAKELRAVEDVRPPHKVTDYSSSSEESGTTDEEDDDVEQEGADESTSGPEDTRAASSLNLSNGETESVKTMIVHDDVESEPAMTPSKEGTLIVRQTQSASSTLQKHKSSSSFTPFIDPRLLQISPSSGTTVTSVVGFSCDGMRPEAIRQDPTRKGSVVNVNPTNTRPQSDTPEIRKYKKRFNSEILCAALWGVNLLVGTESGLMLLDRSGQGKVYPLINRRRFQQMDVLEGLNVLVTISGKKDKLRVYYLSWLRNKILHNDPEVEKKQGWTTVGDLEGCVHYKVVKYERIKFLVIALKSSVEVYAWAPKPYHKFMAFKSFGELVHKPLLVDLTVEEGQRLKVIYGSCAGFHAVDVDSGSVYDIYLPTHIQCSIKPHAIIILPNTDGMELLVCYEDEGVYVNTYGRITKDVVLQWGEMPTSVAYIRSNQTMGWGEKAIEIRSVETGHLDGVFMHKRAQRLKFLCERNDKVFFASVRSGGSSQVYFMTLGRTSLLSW
T21 sequence (Q8N5S9 whole entry): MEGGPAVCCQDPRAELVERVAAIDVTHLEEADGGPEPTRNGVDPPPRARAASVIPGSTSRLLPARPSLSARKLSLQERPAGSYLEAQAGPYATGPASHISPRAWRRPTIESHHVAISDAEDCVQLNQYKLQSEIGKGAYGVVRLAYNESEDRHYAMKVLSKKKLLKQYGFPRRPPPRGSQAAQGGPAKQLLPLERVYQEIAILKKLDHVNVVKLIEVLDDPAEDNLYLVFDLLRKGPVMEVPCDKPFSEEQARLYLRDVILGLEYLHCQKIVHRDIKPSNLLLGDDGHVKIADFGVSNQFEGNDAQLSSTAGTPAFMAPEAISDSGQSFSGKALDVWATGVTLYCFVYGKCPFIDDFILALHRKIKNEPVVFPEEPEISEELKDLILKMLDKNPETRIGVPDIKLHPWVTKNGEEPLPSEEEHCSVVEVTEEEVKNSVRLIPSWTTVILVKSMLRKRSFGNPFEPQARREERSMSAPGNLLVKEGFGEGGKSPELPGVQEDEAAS
T4 sequence (Q00535 whole entry): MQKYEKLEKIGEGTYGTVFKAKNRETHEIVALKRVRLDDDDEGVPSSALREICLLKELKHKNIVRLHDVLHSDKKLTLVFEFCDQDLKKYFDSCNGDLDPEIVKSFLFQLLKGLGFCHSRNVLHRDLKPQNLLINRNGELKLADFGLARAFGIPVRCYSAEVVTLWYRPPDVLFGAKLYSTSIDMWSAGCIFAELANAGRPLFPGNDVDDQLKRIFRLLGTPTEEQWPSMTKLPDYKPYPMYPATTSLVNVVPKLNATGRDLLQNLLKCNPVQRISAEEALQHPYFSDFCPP
T4 sequence (Q15078 99-307 partner limits assumed): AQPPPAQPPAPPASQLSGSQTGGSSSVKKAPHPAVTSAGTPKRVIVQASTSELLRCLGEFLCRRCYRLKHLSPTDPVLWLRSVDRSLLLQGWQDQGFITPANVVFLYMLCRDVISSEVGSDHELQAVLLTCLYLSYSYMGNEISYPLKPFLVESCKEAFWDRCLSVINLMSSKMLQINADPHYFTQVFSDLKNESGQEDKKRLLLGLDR
T23 sequence (Q13557 whole entry): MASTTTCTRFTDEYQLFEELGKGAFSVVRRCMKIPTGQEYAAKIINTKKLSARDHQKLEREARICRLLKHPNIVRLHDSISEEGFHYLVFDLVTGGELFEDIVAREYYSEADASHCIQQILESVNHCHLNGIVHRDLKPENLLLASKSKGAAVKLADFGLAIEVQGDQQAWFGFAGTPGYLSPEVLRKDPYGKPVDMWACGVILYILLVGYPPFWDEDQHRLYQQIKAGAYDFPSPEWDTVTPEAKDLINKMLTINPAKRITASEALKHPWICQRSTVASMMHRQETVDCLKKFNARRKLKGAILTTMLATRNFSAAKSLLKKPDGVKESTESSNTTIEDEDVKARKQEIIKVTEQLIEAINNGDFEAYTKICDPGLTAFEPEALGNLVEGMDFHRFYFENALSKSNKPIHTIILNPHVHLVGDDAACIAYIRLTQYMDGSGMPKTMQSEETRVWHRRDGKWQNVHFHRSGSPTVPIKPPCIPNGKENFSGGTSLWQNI
T7 sequence (O75582 whole entry): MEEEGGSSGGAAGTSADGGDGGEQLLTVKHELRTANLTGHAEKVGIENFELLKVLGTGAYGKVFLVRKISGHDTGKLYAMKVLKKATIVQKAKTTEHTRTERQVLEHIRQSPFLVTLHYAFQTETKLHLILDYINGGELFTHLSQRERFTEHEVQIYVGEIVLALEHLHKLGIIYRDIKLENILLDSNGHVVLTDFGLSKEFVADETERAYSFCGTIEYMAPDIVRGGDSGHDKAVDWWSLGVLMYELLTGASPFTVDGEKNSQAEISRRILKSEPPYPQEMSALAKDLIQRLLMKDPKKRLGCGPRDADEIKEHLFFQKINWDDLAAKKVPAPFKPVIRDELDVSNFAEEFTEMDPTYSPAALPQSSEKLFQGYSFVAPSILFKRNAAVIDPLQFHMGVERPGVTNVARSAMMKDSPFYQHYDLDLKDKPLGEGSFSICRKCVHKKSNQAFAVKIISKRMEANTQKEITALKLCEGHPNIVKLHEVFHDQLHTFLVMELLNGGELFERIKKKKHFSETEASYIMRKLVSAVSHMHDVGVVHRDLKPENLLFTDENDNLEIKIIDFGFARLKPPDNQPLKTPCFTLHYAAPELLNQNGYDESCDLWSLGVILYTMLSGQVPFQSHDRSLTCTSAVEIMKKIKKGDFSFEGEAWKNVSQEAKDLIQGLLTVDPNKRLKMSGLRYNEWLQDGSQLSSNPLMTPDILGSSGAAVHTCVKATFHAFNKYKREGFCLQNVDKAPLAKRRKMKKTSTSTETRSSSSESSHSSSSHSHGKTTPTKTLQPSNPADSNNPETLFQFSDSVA
T24 sequence (Q9P1W9 whole entry): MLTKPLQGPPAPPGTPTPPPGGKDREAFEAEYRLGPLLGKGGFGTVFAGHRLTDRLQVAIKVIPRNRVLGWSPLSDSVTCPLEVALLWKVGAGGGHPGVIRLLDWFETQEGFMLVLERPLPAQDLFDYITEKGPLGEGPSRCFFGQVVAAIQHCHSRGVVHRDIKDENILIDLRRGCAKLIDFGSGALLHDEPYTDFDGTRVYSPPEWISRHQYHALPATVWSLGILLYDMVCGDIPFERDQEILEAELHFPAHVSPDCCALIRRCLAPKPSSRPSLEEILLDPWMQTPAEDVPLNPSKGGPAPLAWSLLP

With `O=C(Cc1ccccc1)Nc1ccc(F)c(Nc2ccc3c(c2)CCCCC3=O)c1` [Compound 100] the Residual activity (CSK; 1.0E-05 M) was 96 % of control, the Residual activity (CSK; 1.0E-06 M) was 106 % of control and the Residual activity (ACVRL1; 1.0E-05 M) was 100 % of control. For the same compound, the Residual activity (ACVRL1; 1.0E-06 M) was 106 % of control, the Residual activity (CK1alpha1; 1.0E-05 M) was 108 % of control and the Residual activity (CK1alpha1; 1.0E-06 M) was 112 % of control. The Residual activity (CDK5/p25NCK; 1.0E-05 M) was 90 % of control, the Residual activity (CDK5/p25NCK; 1.0E-06 M) was 99 % of control and the Residual activity (ERBB4; 1.0E-05 M) was 71 % of control. For the same compound, the Residual activity (ERBB4; 1.0E-06 M) was 97 % of control, the Residual activity (SGK3; 1.0E-05 M) was 98 % of control and the Residual activity (SGK3; 1.0E-06 M) was 103 % of control. For the same compound, the Residual activity (RPS6KA5; 1.0E-05 M) was 97 % of control, the Residual activity (RPS6KA5; 1.0E-06 M) was 104 % of control and the Residual activity (PAK4; 1.0E-05 M) was 92 % of control. For the same compound, the Residual activity (PAK4; 1.0E-06 M) was 97 % of control, the Residual activity (MAP4K5; 1.0E-05 M) was 94 % of control and the Residual activity (MAP4K5; 1.0E-06 M) was 98 % of control. For the same compound, the Residual activity (TYK2; 1.0E-05 M) was 83 % of control, the Residual activity (TYK2; 1.0E-06 M) was 95 % of control and the Residual activity (LIMK1; 1.0E-05 M) was 87 % of control. For the same compound, the Residual activity (LIMK1; 1.0E-06 M) was 102 % of control, the Residual activity (EPHA2; 1.0E-05 M) was 94 % of control and the Residual activity (EPHA2; 1.0E-06 M) was 116 % of control. The Residual activity (RPS6KA6; 1.0E-05 M) was 83 % of control, the Residual activity (RPS6KA6; 1.0E-06 M) was 90 % of control and the Residual activity (CSF1R; 1.0E-05 M) was 96 % of control. For the same compound, the Residual activity (CSF1R; 1.0E-06 M) was 100 % of control, the Residual activity (ACVR2A; 1.0E-05 M) was 95 % of control and the Residual activity (ACVR2A; 1.0E-06 M) was 89 % of control. For the same compound, the Residual activity (WNK2; 1.0E-05 M) was 100 % of control, the Residual activity (WNK2; 1.0E-06 M) was 95 % of control and the Residual activity (MAP4K4; 1.0E-05 M) was 95 % of control. For the same compound, the Residual activity (MAP4K4; 1.0E-06 M) was 89 % of control, the Residual activity (NIK; 1.0E-05 M) was 103 % of control and the Residual activity (NIK; 1.0E-06 M) was 93 % of control. The Residual activity (CDK3/CycE1; 1.0E-05 M) was 80 % of control, the Residual activity (CDK3/CycE1; 1.0E-06 M) was 90 % of control and the Residual activity (ERK7; 1.0E-05 M) was 85 % of control. The Residual activity (ERK7; 1.0E-06 M) was 96 % of control, the Residual activity (CAMKK1; 1.0E-05 M) was 80 % of control and the Residual activity (CAMKK1; 1.0E-06 M) was 78 % of control. The Residual activity (MAP3K11; 1.0E-05 M) was 118 % of control, the Residual activity (MAP3K11; 1.0E-06 M) was 109 % of control and the Residual activity (CAMK2D; 1.0E-05 M) was 90 % of control. The Residual activity (CAMK2D; 1.0E-06 M) was 103 % of control, the Residual activity (PIM2; 1.0E-05 M) was 92 % of control and the Residual activity (PIM2; 1.0E-06 M) was 109 % of control.
`O=C(Nc1ccc(F)c(Nc2ccc3c(c2)CCCCC3=O)c1)c1cccc(F)c1` [Compound 109] was tested, and the Residual activity (CSK; 1.0E-05 M) was 109 % of control, the Residual activity (CSK; 1.0E-06 M) was 112 % of control and the Residual activity (ACVRL1; 1.0E-05 M) was 109 % of control. The Residual activity (ACVRL1; 1.0E-06 M) was 94 % of control, the Residual activity (CK1alpha1; 1.0E-05 M) was 102 % of control and the Residual activity (CK1alpha1; 1.0E-06 M) was 108 % of control. For the same compound, the Residual activity (CDK5/p25NCK; 1.0E-05 M) was 95 % of control, the Residual activity (CDK5/p25NCK; 1.0E-06 M) was 95 % of control and the Residual activity (ERBB4; 1.0E-05 M) was 81 % of control. For the same compound, the Residual activity (ERBB4; 1.0E-06 M) was 98 % of control, the Residual activity (SGK3; 1.0E-05 M) was 97 % of control and the Residual activity (SGK3; 1.0E-06 M) was 96 % of control. For the same compound, the Residual activity (RPS6KA5; 1.0E-05 M) was 93 % of control, the Residual activity (RPS6KA5; 1.0E-06 M) was 96 % of control and the Residual activity (PAK4; 1.0E-05 M) was 82 % of control. For the same compound, the Residual activity (PAK4; 1.0E-06 M) was 98 % of control, the Residual activity (MAP4K5; 1.0E-05 M) was 92 % of control and the Residual activity (MAP4K5; 1.0E-06 M) was 92 % of control. For the same compound, the Residual activity (TYK2; 1.0E-05 M) was 93 % of control, the Residual activity (TYK2; 1.0E-06 M) was 102 % of control and the Residual activity (LIMK1; 1.0E-05 M) was 96 % of control. The Residual activity (LIMK1; 1.0E-06 M) was 89 % of control, the Residual activity (EPHA2; 1.0E-05 M) was 107 % of control and the Residual activity (EPHA2; 1.0E-06 M) was 105 % of control. The Residual activity (RPS6KA6; 1.0E-05 M) was 81 % of control, the Residual activity (RPS6KA6; 1.0E-06 M) was 88 % of control and the Residual activity (CSF1R; 1.0E-05 M) was 94 % of control. For the same compound, the Residual activity (CSF1R; 1.0E-06 M) was 103 % of control, the Residual activity (ACVR2A; 1.0E-05 M) was 108 % of control and the Residual activity (ACVR2A; 1.0E-06 M) was 99 % of control. The Residual activity (WNK2; 1.0E-05 M) was 96 % of control, the Residual activity (WNK2; 1.0E-06 M) was 90 % of control and the Residual activity (MAP4K4; 1.0E-05 M) was 85 % of control. The Residual activity (MAP4K4; 1.0E-06 M) was 94 % of control, the Residual activity (NIK; 1.0E-05 M) was 103 % of control and the Residual activity (NIK; 1.0E-06 M) was 103 % of control. The Residual activity (CDK3/CycE1; 1.0E-05 M) was 82 % of control, the Residual activity (CDK3/CycE1; 1.0E-06 M) was 91 % of control and the Residual activity (ERK7; 1.0E-05 M) was 98 % of control. For the same compound, the Residual activity (ERK7; 1.0E-06 M) was 99 % of control, the Residual activity (CAMKK1; 1.0E-05 M) was 75 % of control and the Residual activity (CAMKK1; 1.0E-06 M) was 77 % of control. For the same compound, the Residual activity (MAP3K11; 1.0E-05 M) was 110 % of control, the Residual activity (MAP3K11; 1.0E-06 M) was 108 % of control and the Residual activity (CAMK2D; 1.0E-05 M) was 88 % of control. The Residual activity (CAMK2D; 1.0E-06 M) was 92 % of control, the Residual activity (PIM2; 1.0E-05 M) was 86 % of control and the Residual activity (PIM2; 1.0E-06 M) was 100 % of control.
